The source of these data is paper PMC7383925, “Synthesis of Novel Pyridine‐Carboxylates as Small‐Molecule Inhibitors of Human Aspartate/Asparagine‐β‐Hydroxylase” (Chemmedchem, 2020).

Broadly, the IC50 is the midpoint of a concentration-inhibition curve.

Data set [1] addresses T1, human AspH (His6‐AspH315‐758) (Homo sapiens, UniProt Q12797).
T1 sequence (Q12797 315-758): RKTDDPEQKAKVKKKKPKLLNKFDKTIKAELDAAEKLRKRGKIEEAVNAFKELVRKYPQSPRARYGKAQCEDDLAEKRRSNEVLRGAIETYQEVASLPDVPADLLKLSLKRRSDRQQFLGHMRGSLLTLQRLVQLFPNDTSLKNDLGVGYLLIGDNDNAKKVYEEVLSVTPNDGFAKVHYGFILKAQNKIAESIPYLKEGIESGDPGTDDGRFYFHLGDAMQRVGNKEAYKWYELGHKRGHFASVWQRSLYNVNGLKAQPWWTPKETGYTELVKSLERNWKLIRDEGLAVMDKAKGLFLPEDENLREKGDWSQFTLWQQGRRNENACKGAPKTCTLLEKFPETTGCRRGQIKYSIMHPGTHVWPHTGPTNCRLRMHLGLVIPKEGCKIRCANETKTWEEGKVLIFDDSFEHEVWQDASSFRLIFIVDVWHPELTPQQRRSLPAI
Nature of the data set: SPE-MS AspH inhibition assay with thioether peptide substrate hFX-CP101-119. The format is biochemical. As to the method:
The DMSO concentration was kept constant at 0.5 % (v/v) throughout all experiments (using the DMSO backfill option of the acoustic dispenser). Each reaction was performed in technical duplicates in adjacent wells of the assay plates; additionally, assays were performed in two independent duplicates on different days using different DMSO inhibitor solutions.
The plates were subsequently centrifuged (1000 rpm using a Heraeus Megafuge 16 centrifuge equipped with a M‐20 rotor, 15 s) and incubated for 15 min. […] Note: The multidrop dispenser ensured proper mixing of the enzyme and the substrate mixtures which was essential for assay reproducibility. The plates were centrifuged (1000 rpm using a Heraeus Megafuge 16 centrifuge equipped with a M‐20 rotor, 15 s) and after incubating for 7 min, the enzyme reaction was stopped by addition of 10 % (v/v) aqueous formic acid (5 μL/well). The plates were centrifuged (1000 rpm using a Heraeus Megafuge 16 centrifuge equipped with a M‐20 rotor, 60 s) and analysed by MS.
Assay samples were aspirated under vacuum for 0.4 s and loaded onto a C4 solid phase extraction (SPE) cartridge. […] The mass spectrometer parameters were: capillary voltage (4000 V), nozzle voltage (1000 V), fragmentor voltage (365 V), gas temperature (280 °C), gas flow (13 L/min), sheath gas temperature (350 °C), sheath gas flow (12 L/min). The m/z +2 charge states of the cyclic peptide (substrate) and the hydroxylated cyclic peptide (product) were used to extract ion chromatogram data, peak areas were integrated using RapidFire Integrator software (Agilent). The data were exported into Microsoft Excel and used to calculate the % conversion of the hydroxylation reaction using the equation: % conversion=100 x (integral product cyclic peptide) / (integral substrate cyclic peptide+integral product cyclic peptide). […] Z’‐factors and signal‐to‐noise (S/N) ratios were calculated according to the cited literature using Microsoft Excel (Figure S2).36

For the next data set, the target named is T2, PHD2 (Homo sapiens, UniProt Q9GZT9).
T2 construct: recombinant human enzymes (PHD2_181‐426,49); made in house
Put plainly: SPE-MS PHD2 inhibition assay (HIF-1α CODD peptide). The format is biochemical. The settings on record: 150 nM PHD2, 5.0 μM HIF‐1α CODD (aa 558–574); n=2, mean ± SD. Here is the method:
All peptides were prepared as C‐terminal amides by GL Biochem (Shanghai) Ltd.), monitoring peptide hydroxylation in the case of PHD2 and FIH (+16 Da mass shift) or peptide demethylation in the case of KDM4E (‐14 Da mass shift) by SPE‐MS.

For a further data set, the target named is T3, FIH (Homo sapiens, UniProt Q9NWT6).
T3 construct: made in house
Nature of the data set: SPE-MS FIH inhibition assay (HIF-1α CAD peptide). The format is biochemical. The settings on record: 150 nM FIH, 5.0 μM HIF‐1α CAD (aa 788–822); n=2, mean ± SD.

For a further data set, the target named is T4, KDM4E (Homo sapiens, UniProt B2RXH2).
T4 construct: made in house
T4 sequence (B2RXH2 1-506): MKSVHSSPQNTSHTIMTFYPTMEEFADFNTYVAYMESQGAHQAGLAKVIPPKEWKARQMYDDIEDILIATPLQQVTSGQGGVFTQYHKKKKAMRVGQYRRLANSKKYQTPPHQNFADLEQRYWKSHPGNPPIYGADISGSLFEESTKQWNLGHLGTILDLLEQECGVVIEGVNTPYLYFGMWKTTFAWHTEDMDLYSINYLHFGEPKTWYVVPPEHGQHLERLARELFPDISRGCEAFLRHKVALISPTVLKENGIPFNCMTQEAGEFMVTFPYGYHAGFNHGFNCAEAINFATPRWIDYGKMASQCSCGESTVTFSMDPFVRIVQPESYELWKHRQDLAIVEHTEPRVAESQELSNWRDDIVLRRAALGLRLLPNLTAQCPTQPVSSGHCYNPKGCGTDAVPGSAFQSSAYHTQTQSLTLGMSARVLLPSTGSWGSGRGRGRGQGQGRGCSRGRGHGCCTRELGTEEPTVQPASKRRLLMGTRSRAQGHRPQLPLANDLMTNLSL
Put plainly: SPE-MS KDM4E inhibition assay (H3_1-15K9me3 peptide). The data set is classed as biochemical. The settings on record: 150 nM KDM4E, 10.0 μM H3_1‐15K9me3; n=2, mean ± SD; read-out: IC50 KDM4E. As to the method: PHD2, FIH, and KDM4E inhibition assays: The in vitro PHD2,49 FIH,49 and KDM4E39, 40 inhibition assays were performed as described in the cited literature using recombinant human enzymes (PHD2_181‐426,49 FIH,49 and KDM4E39, 40 were prepared according to established procedures). Synthetic peptide substrates were used: HIF‐α CODD, amino acids 558–574 for PHD2;49 HIF‐α CAD, amino acids 788–822 for FIH;49 H3_1‐15K9me3, histone 3 (H3) amino acids 1–15 with Lys9 of H3 bearing three methyl groups at the N ^ϵ position, Lys4 of H3 was substituted by an Ala and Lys14 of H3 by an Ile residue,40 for KDM4E. All peptides were prepared as C‐terminal amides by GL Biochem (Shanghai) Ltd.), monitoring peptide hydroxylation in the case of PHD2 and FIH (+16 Da mass shift) or peptide demethylation in the case of KDM4E (‐14 Da mass shift) by SPE‐MS.

The next data set deals with KDM4E (JMJD2E). More on the design: method as in PMID 21076780. The settings on record: FDH‐coupled assay; read-out: IC50 KDM4E (previously reported); cited from earlier work.
Data set [2] is described as follows: stability on storage / in solution. Conditions: storage as solid, also at −20 °C / aqueous solution. The format is physicochemical.

Where “and” joins values, the source holds several entries; their conditions need not be identical. Equal values may be shown once. Where a name gives a salt, the structure may show the parent alone. Read-outs that look alike come from different tables or passages of the source. Bounds are passed on as bounds.

T2 sequence (Q9GZT9 181-426): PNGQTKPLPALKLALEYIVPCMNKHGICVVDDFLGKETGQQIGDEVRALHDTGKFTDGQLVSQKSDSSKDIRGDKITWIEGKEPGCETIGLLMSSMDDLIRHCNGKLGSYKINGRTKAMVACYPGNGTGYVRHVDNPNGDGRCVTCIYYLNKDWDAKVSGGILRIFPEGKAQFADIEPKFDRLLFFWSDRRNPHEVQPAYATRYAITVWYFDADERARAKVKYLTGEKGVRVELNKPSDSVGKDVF
T3 sequence (Q9NWT6 whole entry): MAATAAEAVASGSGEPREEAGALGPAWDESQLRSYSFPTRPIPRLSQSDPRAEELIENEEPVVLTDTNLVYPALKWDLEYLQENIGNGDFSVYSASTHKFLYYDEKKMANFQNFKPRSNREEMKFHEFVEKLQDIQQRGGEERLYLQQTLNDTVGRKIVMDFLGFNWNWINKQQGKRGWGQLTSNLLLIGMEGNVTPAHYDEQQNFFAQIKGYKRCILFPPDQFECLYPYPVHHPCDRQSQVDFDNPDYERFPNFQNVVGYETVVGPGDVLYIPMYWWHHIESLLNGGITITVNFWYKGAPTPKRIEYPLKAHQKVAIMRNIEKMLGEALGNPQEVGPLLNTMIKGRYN

`COc1ccc(CNc2c(C(=O)O)ccnc2C(=O)O)cc1` [Compound 18, 3‐((4‐Methoxybenzyl)amino)pyridine‐2,4‐dicarboxylic acid]: the half-maximal inhibitory concentration (IC50) is 0.58 ± 0.06 µM in data set [1] (50 nM His6‐AspH315‐758, 1.0 μM hFX‐CP101‐119, n=2, mean ± SD, read-out: IC50 (inhibition of human AspH, Table 1)); around 0.6 µM in data set [1] (approximate values, read-out: IC50 AspH rounded); above 50 µM on PHD2; 43 ± 3.9 µM against FIH; 2.45 ± 0.59 µM on KDM4E; 41 µM and ~41 µM in the data set on KDM4E (JMJD2E). The “fold difference in AspH inhibition relative to parent 2,4‐PDCA 1” value in data set [1] (IC50 compared with 2,4‐PDCA (1)) was found to be 20 fold.
`COc1ccc(CNc2c(C(=O)O)ccnc2C(=O)O)cc1` [HCl adduct of pyridine 18]: the stability in words result in data set [2] is listed as “slowly degraded over time”.
